# Active and inactive are the calls of the source.
# Key:
# [1] = target: T1, Replicative DNA helicase DnaB (Mycobacterium tuberculosis, UniProt P9WMR3); experiment: DnaB intein splicing inhibitors, dose response, biochemical, cell-free fluorescence (AID 449749); type: functional
# T1 sequence (P9WMR3 whole entry): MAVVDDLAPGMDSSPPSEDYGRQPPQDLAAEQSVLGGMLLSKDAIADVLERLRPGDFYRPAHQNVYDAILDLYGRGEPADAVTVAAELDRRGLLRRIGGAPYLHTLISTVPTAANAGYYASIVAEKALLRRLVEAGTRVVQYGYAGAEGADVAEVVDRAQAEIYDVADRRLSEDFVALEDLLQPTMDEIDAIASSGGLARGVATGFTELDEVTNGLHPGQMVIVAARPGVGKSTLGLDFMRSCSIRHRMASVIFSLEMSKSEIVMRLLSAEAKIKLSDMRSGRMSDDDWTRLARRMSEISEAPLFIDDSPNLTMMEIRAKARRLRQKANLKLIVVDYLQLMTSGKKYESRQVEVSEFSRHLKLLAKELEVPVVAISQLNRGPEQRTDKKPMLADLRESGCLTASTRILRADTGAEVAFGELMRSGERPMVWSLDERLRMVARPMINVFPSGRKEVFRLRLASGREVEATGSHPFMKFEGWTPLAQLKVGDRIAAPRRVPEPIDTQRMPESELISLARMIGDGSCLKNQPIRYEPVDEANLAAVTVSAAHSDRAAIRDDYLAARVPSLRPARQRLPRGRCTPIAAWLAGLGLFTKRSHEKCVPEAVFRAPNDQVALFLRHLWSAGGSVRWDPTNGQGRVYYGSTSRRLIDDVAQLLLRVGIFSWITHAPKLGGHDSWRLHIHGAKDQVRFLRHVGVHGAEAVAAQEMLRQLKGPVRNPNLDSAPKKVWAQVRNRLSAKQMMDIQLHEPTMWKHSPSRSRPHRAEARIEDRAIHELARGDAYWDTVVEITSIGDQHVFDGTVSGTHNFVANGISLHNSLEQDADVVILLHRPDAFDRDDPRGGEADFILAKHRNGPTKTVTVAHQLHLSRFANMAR
# Streptococcus = experiment: GAS UMAA2166 growth inhibition – luminescence, BacTiterGlo, counter-screen for streptokinase expression inhibitor project, dose response (AID 1915); type: functional, organism-based;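 note: potency for reduction of bacterial viability or growth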
# Protein RecA = target: T2, Protein RecA (Mycobacterium tuberculosis, UniProt P9WHJ3); experiment: Fluorescence Cell-Free Homogeneous Dose Retest to Identify Inhibitors of RecA-Intein Splicing Activity. [Related pubchem assays (depositor defined):AID2097, AID2223, AID489010, AID492950]; type: functional
# T2 sequence (P9WHJ3 whole entry): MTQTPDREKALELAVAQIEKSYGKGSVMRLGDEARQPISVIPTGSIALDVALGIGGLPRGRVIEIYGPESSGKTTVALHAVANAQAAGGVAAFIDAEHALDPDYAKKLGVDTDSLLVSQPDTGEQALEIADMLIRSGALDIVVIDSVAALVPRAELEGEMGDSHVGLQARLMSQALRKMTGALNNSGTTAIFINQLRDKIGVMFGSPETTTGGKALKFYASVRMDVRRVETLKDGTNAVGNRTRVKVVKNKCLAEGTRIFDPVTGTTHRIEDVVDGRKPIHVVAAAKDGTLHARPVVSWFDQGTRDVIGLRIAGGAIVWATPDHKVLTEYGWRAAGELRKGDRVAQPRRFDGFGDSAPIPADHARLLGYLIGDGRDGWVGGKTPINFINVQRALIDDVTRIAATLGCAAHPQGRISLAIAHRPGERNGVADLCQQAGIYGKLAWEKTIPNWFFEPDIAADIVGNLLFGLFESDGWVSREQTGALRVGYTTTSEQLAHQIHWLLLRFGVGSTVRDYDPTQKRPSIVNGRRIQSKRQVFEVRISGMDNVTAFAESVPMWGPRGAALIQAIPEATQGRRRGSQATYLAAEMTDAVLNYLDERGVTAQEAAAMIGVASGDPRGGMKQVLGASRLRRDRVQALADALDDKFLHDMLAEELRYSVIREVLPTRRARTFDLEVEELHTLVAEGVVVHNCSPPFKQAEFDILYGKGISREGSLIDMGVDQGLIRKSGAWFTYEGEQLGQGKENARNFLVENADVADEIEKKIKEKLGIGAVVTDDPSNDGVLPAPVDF
# [2] = tested on: Streptococcus sp. 'group A'; experiment: Streptococcus pyogenes SK(-)GAS viability under kanamycin – luminescence, BacTiterGlo, confirmation, counter-screen for streptokinase expression inhibitor project, dose response (AID 1900); type: functional, organism-based
# INS1 = experiment: INS-1E survival protection against cytokine death – cell-based, luminescence, retest, dose response (AID 449756); type: functional; conditions: Rattus norvegicus;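 note: cell death triggered by IL-1 beta plus TNF-alpha plus IFN-gamma mixture; protective hits raise ATP signal compared with cytokine alone wells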
# HEK293 = experiment: cells; type: functional, cell-based; conditions: Homo sapiens;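 note: HEK-293-T cells carrying an NF-kB luciferase reporter; cells exposed to compound overnight before the viability read; potency for loss of cell viability meaning cytotoxicity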
# [3] = Counterscreen for AddAB inhibitors: absorbance-based bacterial cell-based high throughput dose response assay for inhibitors of bacterial viability. [Related pubchem assays (depositor defined):AID435030, AID449728, AID449731, AID488942, AID488955, AID488956]; type: functional
# [4] = target: T3, Zinc finger protein mex-5 (Caenorhabditis elegans, UniProt Q9XUB2); experiment: potency of MEX-5 RNA-binding blockers – biochemical, C. elegans, fluorescence polarization, dose response (AID 1960)
# T3 sequence (Q9XUB2 whole entry): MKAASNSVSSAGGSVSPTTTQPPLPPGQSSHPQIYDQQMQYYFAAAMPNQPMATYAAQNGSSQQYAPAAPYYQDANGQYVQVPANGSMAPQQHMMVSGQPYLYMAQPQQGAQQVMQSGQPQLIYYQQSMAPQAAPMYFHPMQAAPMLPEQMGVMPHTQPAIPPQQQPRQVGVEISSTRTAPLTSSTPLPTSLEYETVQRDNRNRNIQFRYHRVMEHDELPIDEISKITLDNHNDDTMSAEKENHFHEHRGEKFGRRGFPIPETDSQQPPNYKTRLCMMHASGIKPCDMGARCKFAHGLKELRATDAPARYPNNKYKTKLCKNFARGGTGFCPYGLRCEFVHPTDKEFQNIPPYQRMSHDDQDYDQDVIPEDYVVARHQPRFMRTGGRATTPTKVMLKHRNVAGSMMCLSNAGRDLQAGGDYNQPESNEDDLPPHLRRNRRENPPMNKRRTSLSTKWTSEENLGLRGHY
Compound,AC50 [1],EC50 (Streptococcus),EC50 (Protein RecA),EC50 [2],AC50 (INS1),IC50 (HEK293),IC50 [3],EC50 [4]
COc1ccc(CNC(=O)c2c(C)oc3c2C(=O)c2ccccc2C3=O)cc1,13.3 µM (active),6.35 µM (active),5.29 µM (active),0.737 µM (active),2.8 µM (active),–,–,–
CCSc1nsc(NC(=O)Nc2cccc(F)c2)n1,–,20.7 µM (active),–,9.91 µM (active),–,10.8 µM (active),> 119 µM (inactive),–
O=[N+]([O-])c1ccc(/C=N/n2cnc3ccccc32)s1,–,–,–,–,2.6 µM (active),–,91.4 µM (inactive),> 300 µM (inconclusive)
CC(C)c1ccc(S(=O)(=O)/N=C2\C=C(NS(=O)(=O)c3ccccc3)C(=O)c3ccccc32)cc1,3.92 µM (active),–,3.69 µM (active),–,–,–,–,–
